The text below walks through data of patent US20100158808A1, “Altered Activity of Toll-Like Receptors” (priority 2003, published 2010).

The target in one experiment is T1, TLR4/MD2 complex (Mus musculus, UniProt Q9JHF9+Q9QUK6).
T1 construct: expressed in transfected cells; host or cells: HEK 293 clone HEK/TLR4(+)
T1 sequence (Q9QUK6 26-835): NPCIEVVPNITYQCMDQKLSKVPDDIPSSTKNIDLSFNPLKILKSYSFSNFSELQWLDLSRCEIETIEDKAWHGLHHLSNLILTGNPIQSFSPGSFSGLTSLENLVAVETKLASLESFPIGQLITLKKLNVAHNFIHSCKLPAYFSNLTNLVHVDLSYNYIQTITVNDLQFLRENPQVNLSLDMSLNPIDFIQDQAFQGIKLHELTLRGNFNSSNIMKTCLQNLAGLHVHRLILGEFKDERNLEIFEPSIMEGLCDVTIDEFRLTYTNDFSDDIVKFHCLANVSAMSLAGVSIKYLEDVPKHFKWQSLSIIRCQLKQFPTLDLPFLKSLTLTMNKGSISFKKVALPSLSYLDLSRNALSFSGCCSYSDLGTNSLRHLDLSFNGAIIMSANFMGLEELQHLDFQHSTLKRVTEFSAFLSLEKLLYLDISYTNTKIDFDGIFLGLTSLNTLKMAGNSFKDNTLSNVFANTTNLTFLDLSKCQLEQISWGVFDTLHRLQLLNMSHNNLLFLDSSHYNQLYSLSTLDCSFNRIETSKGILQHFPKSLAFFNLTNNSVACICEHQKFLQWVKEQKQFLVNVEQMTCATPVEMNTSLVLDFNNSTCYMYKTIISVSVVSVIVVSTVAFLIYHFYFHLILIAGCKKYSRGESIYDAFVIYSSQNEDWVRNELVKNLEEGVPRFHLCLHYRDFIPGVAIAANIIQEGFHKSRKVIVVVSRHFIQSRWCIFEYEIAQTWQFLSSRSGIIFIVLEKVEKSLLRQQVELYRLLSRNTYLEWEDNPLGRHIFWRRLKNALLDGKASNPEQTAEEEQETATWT
T1 sequence (Q9JHF9 19-160): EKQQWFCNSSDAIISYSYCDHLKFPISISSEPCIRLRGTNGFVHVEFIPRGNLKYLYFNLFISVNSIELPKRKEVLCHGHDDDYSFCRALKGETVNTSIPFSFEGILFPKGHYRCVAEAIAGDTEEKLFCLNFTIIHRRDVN
As to the kind of experiment: Cell surface expression of TLR4/MD2 in HEK/TLR4(+) cells by flow cytometry. In kind it is cell-based, murine. How it is done: FIG. 2A is a graph plotting the level of reporter activity in HEK/TLR4(+) cells transfected with NFκB- and control-luciferase reporter plasmids and then stimulated with intact HS or LPS, or with HS or LPS that had been treated with nitrous acid (HNO2) at pH 4.0 or pH 1.5. Controls were treated with PBS vehicle. […] FIG. 2C is a graph showing the effect of PBS, HS, depolymerized HS (nitrous acid, pH 1.5), and recombinant human IL-1α on cell surface expression of TLR4/MD2 in HEK/TLR4(+) cells. Expression of TLR4 on the cell surface was determined by flow cytometry using a monoclonal antibody specific to the TLR4/MD2 complex. Values are the mean of triplicate wells and are representative of three separate experiments.
To determine whether the effect of HS occurred through specific action on TLR4, surface expression of the TLR4/MD2 complex on cells treated with HS was examined. […] Thus, HEK/TLR4(+) cells responded to HS by activating NFκB and mobilizing receptor complexes.
Background: A flow cytometer gives signals particle by particle.

A further experiment deals with T2, TLR4 (Mus musculus, UniProt Q9JHF9+Q9QUK6).
T2 sequence (Q9QUK6 26-835): T1 sequence (Q9QUK6 26-835)
T2 sequence (Q9JHF9 19-160): T1 sequence (Q9JHF9 19-160)
Briefly: TNF-α secretion by dendritic cells (APC) cocultured with PAEC, ELISA. The conditions noted are these: cocultures of PAEC and murine APCs, TLR4-positive or -negative. It is filed as cell-based. Here is the method:
Cell Isolation and Culture. Dendritic cells were generated from murine bone marrow cultures as previously described (Kodaira et al. (2000) J. Immunol. 165:1599). At day 6 or 7 of culture, nonadherent cells and loosely adherent proliferating dendritic cell aggregates were harvested for analysis or stimulation. PAEC were cultured to confluence and their identity was confirmed as previously described (Ryan and Maxwell (1986) J. Tissue Cult. Methods 10:3).
Cell Culture Stimulation. Dendritic cells (2×10^6 per ml) cocultured with confluent monolayers of PAEC in 96-well plates were stimulated with 10 μg/ml chondroitin sulfate, 500 ng/ml CpG DNA, 10 ng/ml LPS, 10 μg/ml HS, 50 μg/ml zymosan, or PBS, unless otherwise indicated. To control for purity, agonists were pretreated with END-X B15, or mixed with Limulus anti-LPS factor before stimulation of cells, as indicated. In some experiments, agonists were boiled before use for 60 minutes at 100° C.
Cytokine Quantification. Age-matched female mice were injected in the peritoneum with 0.5 U of elastase, 5 mg of HS, 200 U of heparin, 150 μg of CpG DNA, or PBS with a total volume of 250 μl. One hour and 3 hours after injection, 100-μl blood samples were collected from the tail vein. […] Concentrations of TNF-α were analyzed by enzyme-linked sandwich ELISA (R&D Systems, Minneapolis, Minn.). […]
For orientation: An ELISA detects its analyte on a solid surface through an enzyme-linked reagent.

Experiment [1] is described as follows: Loss of HS from spleen tissue after intrasplenic injection (immunopathology). It is filed as in vivo, mice. The conditions noted are these: within 5 hours of injection. Here is the method:
Immunopathology. After intraperitoneal (i.p.) injection of ketamine and xylazine, murine spleens were directly visualized through an incision in the lateral abdominal wall and injected with 100 μl of PBS containing 0.1 U of elastase or PBS alone. Five hours later, the spleen was harvested and pieces snap-frozen. Tissue sections were prepared and stained as previously described (Dempsey et al. supra) with the several modifications. In particular, secondary and tertiary antibodies were mouse serum (Jackson ImmunoResearch Laboratories, West Grove, Pa.) preabsorbed and diluted in M.O.M. diluent (Vector Laboratories, Burlingame, Calif.). Fluorescent images were converted to grayscale using SPOT software (Diagnostic Instruments, Sterling Heights, Mich.).
To determine whether elastase liberates HS in vivo, spleen tissues were harvested from mice that had been injected intrasplenically with the enzyme, and the tissues were tested for the presence of HS. […] Thus, pancreatic elastase can induce loss of HS proteoglycan from tissues in vivo.

Take heparan sulfate [HS]: on TLR4/MD2 complex, the “Decrease in surface expression of TLR4/MD2” value is 60%. Besides, the “TNF-α secretion by APC” value at TLR4 was “secreted TNF-α in a TLR4-dependent manner”.
On to “elastase: pancreatic elastase (Calbiochem; type IV porcine pancreatic elastase, Sigma-Aldrich), protease that cleaves ECM proteins”, for which, in the experiment with TLR4, the “TNF-α secretion by APC” value is reported as “secreted TNF-α in a TLR4-dependent manner”. Also, in experiment [1], the “Loss of HS from blood vessels of spleen” value is listed as “lost HS from blood vessels at the injection site”.
As for lipopolysaccharide [LPS], the “Change in surface expression of TLR4/MD2” value on TLR4/MD2 complex is “a decrease similar to that induced by LPS”.
